T1: Arisaema tortuosum lectin (ATL) (Arisaema tortuosum, UniProt A0A1L6CAS7)
T1 construct: 257-residue precursor, predicted signal peptide 1-23, two domains (DOM1 N26-P132, DOM2 N146-A254) separated by processing; 52 kDa heterotetramer 2 x (A + B)
T1 sequence (A0A1L6CAS7 24-257): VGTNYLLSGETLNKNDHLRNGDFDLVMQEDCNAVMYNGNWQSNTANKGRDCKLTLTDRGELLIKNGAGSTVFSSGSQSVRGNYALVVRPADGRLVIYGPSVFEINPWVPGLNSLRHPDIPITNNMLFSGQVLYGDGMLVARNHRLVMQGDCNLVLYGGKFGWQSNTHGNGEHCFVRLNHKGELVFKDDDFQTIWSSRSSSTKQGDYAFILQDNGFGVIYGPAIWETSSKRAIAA


molecular target: T1, Arisaema tortuosum lectin (ATL); assay: CFG glycan microarray v5.[…], biotinylated lectin, fluorescence; assay type: binding; settings: glycan immobilised via spacer; mean over 10, 1.0 and 0.1 µg/ml lectin

| Molecule | Avg. rank^a |
| --- | --- |
| Mana1-6(Galb1-4GlcNAcb1-2Mana1-3)Manb1-4GlcNAcb1-4GlcNAcb-Sp12 [compound 352] | 15.5 average rank (from RFU) |
| GlcNAcb1-2Mana1-6(GlcNAcb1-2Mana1-3)Manb1-4GlcNAcb1-4GlcNAcb-Sp13 [compound 53] | 48.0 average rank (from RFU) |
| Mana1-6(Mana1-3)Manb1-4GlcNAcb1-4(Fuca1-6)GlcNAcb-Sp19 [compound 485] | 62.5 average rank (from RFU) |
| Mana1-6(Mana1-3)Mana1-6(Mana1-2Mana1-3)Manb1-4GlcNAcb1-4GlcNAcb-Sp12 [compound 216] | 37.3 average rank (from RFU) |
| Galb1-4GlcNAcb1-2Mana1-6(GlcNAcb1-2Mana1-3)Manb1-4GlcNAcb1-4GlcNAc-Sp12 [compound 399] | 13.8 average rank (from RFU) |
| Mana1-2Mana1-6(Mana1-3)Mana1-6(Mana1-2Mana1-2Mana1-3)Manb1-4GlcNAcb1-4GlcNAcb-Sp12 [compound 212] | 35.7 average rank (from RFU) |
| Galb1-3GlcNAcb1-2Mana1-6(Galb1-3GlcNAcb1-2Mana1-3)Manb1-4GlcNAcb1-4(Fuca1-6)GlcNAcb-Sp22 [compound 355] | 24.1 average rank (from RFU) |
| Mana1-6(Mana1-3)Mana1-6(Mana1-3)Manb1-4GlcNAcb1-4GlcNAcb-Sp12 [compound 217] | 67.9 average rank (from RFU) |
| Galb1-4GlcNAcb1-6(Galb1-4GlcNAcb1-2)Mana1-6(Galb1-4GlcNAcb1-4(Galb1-4GlcNAcb1-2)Mana1-3)Manb1-4GlcNAcb1-4GlcNAcb-Sp21 [compound 388] | 51.9 average rank (from RFU) |
| Mana1-6(Mana1-2Mana1-3)Mana1-6(Mana1-2Mana1-3)Manb1-4GlcNAcb1-4GlcNAcb-Sp12 [compound 211] | 30.4 average rank (from RFU) |
| GlcNAcb1-2Mana1-6(GlcNAcb1-4(GlcNAcb1-2)Mana1-3)Manb1-4GlcNAcb1-4GlcNAc-Sp21 [compound 389] | 85.5 average rank (from RFU) |
| Fuca1-2Galb1-4(Fuca1-3)GlcNAcb1-2Mana1-6(Fuca1-2Galb1-4(Fuca1-3)GlcNAcb1-2Mana1-3)Manb1-4GlcNAcb1-4(Fuca1-6)GlcNAcb-Sp24 [compound 473] | 20.0 average rank (from RFU) |
| Galb1-4GlcNAcb1-2Mana1-6(Galb1-4GlcNAcb1-4(Galb1-4GlcNAcb1-2)Mana1-3)Manb1-4GlcNAcb1-4GlcNAc-Sp21 [compound 370] | 24.5 average rank (from RFU) |
| Galb1-3GlcNAcb1-2Mana1-6(Galb1-3GlcNAcb1-2Mana1-3)Manb1-4GlcNAcb1-4GlcNAcb-Sp19 [compound 325] | 57.7 average rank (from RFU) |
| Galb1-4GlcNAcb1-2Mana1-6(Mana1-3)Manb1-4GlcNAcb1-4GlcNAcb-Sp12 [compound 365] | 59.9 average rank (from RFU) |
| Galb1-4GlcNAcb1-3Galb1-4GlcNAcb1-2Mana1-6(Galb1-4GlcNAcb1-3Galb1-4GlcNAcb1-2Mana1-3)Manb1-4GlcNAcb1-4(Fuca1-6)GlcNAcb-Sp24 [compound 576] | 20.9 average rank (from RFU) |
| GlcNAcb1-3Galb1-4GlcNAcb1-2Mana1-6(GlcNAcb1-3Galb1-4GlcNAcb1-2Mana1-3)Manb1-4GlcNAcb1-4(Fuca1-6)GlcNAcb-Sp24 [compound 575] | 20.6 average rank (from RFU) |
| Fuca1-2Galb1-4 GlcNAcb1-2Mana1-6(Fuca1-2Galb1-4GlcNAcb1-2(Fuca1-2Galb1-4GlcNAcb1-4)Mana1-3)Manb1-4GlcNAcb1-4GlcNAcb-Sp12 [compound 446] | 25.9 average rank (from RFU) |
| Gala1-4Galb1-3GlcNAcb1-2Mana1-6(Gala1-4Galb1-3GlcNAcb1-2Mana1-3)Manb1-4GlcNAcb1-4GlcNAcb-Sp19 [compound 404] | 70.8 average rank (from RFU) |
| Mana1-6(Mana1-3)Manb1-4GlcNAcb1-4GlcNAcb-Sp13 [compound 51] | 87.6 average rank (from RFU) |

molecular target: Arisaema tortuosum lectin (Arisaema tortuosum); assay: ITC; MicroCal iTC200, 18 injections, data fitted to a one site model; ATL dialysed in PBS; which partner was in the syringe is not stated; settings: not given

| Molecule | stoichiometry N |
| --- | --- |
| asialofetuin (natural protein, glycoprotein (complex glycoprotein, asialo form as named)) IPLDPVAGYKEPACDDPDTEQAALAAVDYINKHLPRGYKHTLNQIDSVKVWPRRPTGEVYDIEIDTLETTCHVLDPTPLANCSVRQQTQHAVEGDCDIHVLKQDGQFSVLFTKCDSSPDSAEDVRKLCPDCPLLAPLNDSRVVHAVEVALATFNAESNGSYLQLVEISRAQFVPLPVSVSVEFAVAATDCIAKEVVDPTKCNLLAEKQYGFCKGSVIQKALGGEDVRVTCTLFQTQPVIPQPQPDGAEAEAPSAVPDAAGPTPSAAGPPVASVVVGPSVVAVPLPLHRAHYDLRHTFSGVASVESSSGEAFHVGKTPIVGQPSIPGGPVRLCPGRIRYFKI | 0.32 |

molecular target: Arisaema tortuosum lectin (Arisaema tortuosum); assay: ITC; MicroCal iTC200, 18 injections, fitted with a one site model; ATL dialysed against PBS; set-up as described in ref. 21; temperature not stated; settings: not given

| Molecule | Ka [M⁻¹] |
| --- | --- |
| asialofetuin (natural protein, glycoprotein (complex glycoprotein, asialo form as named)) IPLDPVAGYKEPACDDPDTEQAALAAVDYINKHLPRGYKHTLNQIDSVKVWPRRPTGEVYDIEIDTLETTCHVLDPTPLANCSVRQQTQHAVEGDCDIHVLKQDGQFSVLFTKCDSSPDSAEDVRKLCPDCPLLAPLNDSRVVHAVEVALATFNAESNGSYLQLVEISRAQFVPLPVSVSVEFAVAATDCIAKEVVDPTKCNLLAEKQYGFCKGSVIQKALGGEDVRVTCTLFQTQPVIPQPQPDGAEAEAPSAVPDAAGPTPSAAGPPVASVVVGPSVVAVPLPLHRAHYDLRHTFSGVASVESSSGEAFHVGKTPIVGQPSIPGGPVRLCPGRIRYFKI | 116000 |

Reference: publication PMC6505227, “Exploration of carbohydrate binding behavior and anti-proliferative activities of Arisaema tortuosum lectin” (BMC Molecular Biology, 2019)
